Laboratory results taken from patent publication US20090136460A1 (VANDERBILT UNIVERSITY, priority 2007, published 2009).
Read-outs that look alike come from different tables or passages of the source. Each block holds one compound with its values, some of them ahead of it.

Assays:
A2B receptors = molecular target: T1, A2B receptors (Mus musculus, UniProt Q60614); test: NECA-stimulated cAMP accumulation in MCEC-1 cells; conditions: for Affinity or potency at A2B, mouse (m), current study, log / Affinity or potency (Ki, KD, KB, IC50 or EC50) at A2B, mouse (m), current study: data from the current study (no reference); for Affinity or potency (Ki, KD, KB, IC50 or EC50) at A2B, mouse (m), current study: 95% CI in parentheses
T1 sequence (Q60614 1-332): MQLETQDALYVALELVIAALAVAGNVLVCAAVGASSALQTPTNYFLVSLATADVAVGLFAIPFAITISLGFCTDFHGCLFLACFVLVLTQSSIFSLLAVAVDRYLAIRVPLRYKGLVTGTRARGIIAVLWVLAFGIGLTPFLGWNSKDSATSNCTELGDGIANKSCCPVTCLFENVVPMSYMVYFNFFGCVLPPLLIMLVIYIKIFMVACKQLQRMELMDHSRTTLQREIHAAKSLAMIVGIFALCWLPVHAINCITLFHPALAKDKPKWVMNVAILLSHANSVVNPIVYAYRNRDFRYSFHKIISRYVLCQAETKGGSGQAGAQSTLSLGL

[1] = system: eEPC adhesion to MCEC-1 cells; test: eEPC adhesion to MCEC-1 cells under static conditions; type: cell-based, mouse; conditions: for IC50: read-out: IC50, inhibition of NECA-induced eEPC adhesion
A2A adenosine receptor [2] = molecular target: A2A adenosine receptor (Homo sapiens, UniProt P29274); conditions: [14] Feoktistov et al, 2001, transfected CHO cells, radioligand [3H]NECA, cited from earlier work
A2A adenosine receptor (Homo sapiens, UniProt P29274), sequence (P29274 whole entry): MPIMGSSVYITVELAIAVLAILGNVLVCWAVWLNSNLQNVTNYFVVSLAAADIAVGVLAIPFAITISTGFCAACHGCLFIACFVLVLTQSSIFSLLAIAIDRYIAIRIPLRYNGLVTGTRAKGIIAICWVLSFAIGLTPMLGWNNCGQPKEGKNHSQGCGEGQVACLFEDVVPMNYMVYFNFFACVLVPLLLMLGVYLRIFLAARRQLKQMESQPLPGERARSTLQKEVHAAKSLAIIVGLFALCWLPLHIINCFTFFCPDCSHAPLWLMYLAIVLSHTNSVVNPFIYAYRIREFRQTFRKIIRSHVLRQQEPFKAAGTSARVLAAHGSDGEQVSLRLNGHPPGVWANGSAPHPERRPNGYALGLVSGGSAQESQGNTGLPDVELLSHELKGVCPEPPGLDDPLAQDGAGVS

A1 receptors = molecular target: T2, A1 receptors (Mus musculus, UniProt Q60612); test: Inhibition of forskolin-stimulated cAMP accumulation in mouse eEPCs
T2 sequence (Q60612 1-326): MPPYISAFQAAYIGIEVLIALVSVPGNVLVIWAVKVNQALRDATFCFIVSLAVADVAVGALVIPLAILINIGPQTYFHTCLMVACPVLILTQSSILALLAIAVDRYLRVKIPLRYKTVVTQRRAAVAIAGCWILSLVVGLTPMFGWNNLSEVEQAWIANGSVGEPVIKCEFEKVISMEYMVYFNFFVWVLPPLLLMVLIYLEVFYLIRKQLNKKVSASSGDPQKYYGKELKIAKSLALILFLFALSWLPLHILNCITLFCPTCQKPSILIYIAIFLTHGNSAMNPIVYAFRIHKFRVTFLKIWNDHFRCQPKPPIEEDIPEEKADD

A1 adenosine receptor = molecular target: T3, A1 adenosine receptor (Homo sapiens, UniProt P30542); conditions: [14] Feoktistov et al, 2001, transfected CHO cells, radioligand [3H]DPCPX, cited from earlier work
T3 sequence (P30542 1-326): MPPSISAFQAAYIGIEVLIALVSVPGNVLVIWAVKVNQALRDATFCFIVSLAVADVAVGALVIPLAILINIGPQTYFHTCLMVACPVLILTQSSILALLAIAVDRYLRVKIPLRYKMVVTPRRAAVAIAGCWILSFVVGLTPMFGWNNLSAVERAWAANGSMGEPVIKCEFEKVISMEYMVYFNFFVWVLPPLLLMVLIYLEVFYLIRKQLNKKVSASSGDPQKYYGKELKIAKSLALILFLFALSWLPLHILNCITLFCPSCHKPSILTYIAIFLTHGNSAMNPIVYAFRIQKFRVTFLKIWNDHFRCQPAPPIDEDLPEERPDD

A2B adenosine receptor [3] = molecular target: T4, A2B adenosine receptor (Homo sapiens, UniProt P29275); conditions: [14] Feoktistov et al, 2001, transfected HEK 293 or HEL cells, radioligand [3H]ZM241685, cited from earlier work
T4 sequence (P29275 1-332): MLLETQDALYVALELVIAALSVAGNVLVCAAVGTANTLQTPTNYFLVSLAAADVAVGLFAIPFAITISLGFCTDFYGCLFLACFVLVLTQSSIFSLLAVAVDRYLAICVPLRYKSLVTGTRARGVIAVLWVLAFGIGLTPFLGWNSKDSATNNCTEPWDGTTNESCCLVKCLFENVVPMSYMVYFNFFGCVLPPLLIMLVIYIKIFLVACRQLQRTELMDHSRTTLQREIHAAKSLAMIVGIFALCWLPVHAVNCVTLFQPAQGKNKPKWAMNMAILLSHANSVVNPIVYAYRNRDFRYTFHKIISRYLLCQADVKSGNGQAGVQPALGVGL

A2A adenosine receptor [4] = molecular target: A2A adenosine receptor (Cavia porcellus, UniProt P46616); conditions: [15] Martin et al. (1993); NECA-stimulated atrium (A1) or aorta (A2A); cited from earlier work
A2A adenosine receptor (Cavia porcellus, UniProt P46616), sequence (P46616 whole entry): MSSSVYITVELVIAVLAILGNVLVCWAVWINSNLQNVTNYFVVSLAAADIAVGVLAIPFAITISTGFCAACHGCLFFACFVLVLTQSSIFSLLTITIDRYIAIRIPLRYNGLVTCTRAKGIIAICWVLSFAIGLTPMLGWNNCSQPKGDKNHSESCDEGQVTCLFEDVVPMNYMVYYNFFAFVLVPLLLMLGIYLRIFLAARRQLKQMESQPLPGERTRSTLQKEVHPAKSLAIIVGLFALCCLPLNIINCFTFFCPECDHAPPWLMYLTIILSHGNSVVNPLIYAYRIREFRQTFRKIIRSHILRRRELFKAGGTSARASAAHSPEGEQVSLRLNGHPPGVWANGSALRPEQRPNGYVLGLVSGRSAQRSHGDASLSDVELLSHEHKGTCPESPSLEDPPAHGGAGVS

A2A adenosine receptor [5] = molecular target: T5, A2A adenosine receptor (Mus musculus, UniProt Q60612); test: Potency at mouse receptor, current study, in A2A of Table 1; type: cell-based; conditions: data from the current study (no reference)
T5 construct: from tissue; host or cells: isolated perfused C57Bl/6 mouse heart (my inference)
T5 sequence (Q60612 1-326): T2 sequence (Q60612 1-326)
Excerpt: Measurement of cAMP accumulation.

A2B adenosine receptor [6] = conditions: [15] Martin et al. (1993); NECA-stimulated atrium (A1) or aorta (A2A); cited from earlier work
[7] = system: CE-EPC adhesion to HMVEC-c cells; test: Adhesion of human culture-expanded EPCs (CE-EPCs) to HMVEC-c cells; conditions: increasing concentrations
eEPCs = test: cAMP accumulation in mouse eEPCs (forskolin, NECA); conditions: FIG. 1B
[8] = system: eEPC adhesion to MCEC-1 cells; test: eEPC adhesion to MCEC-1 cells under flow conditions; type: cell-based, mouse; conditions: 10 μmol/L; shear stress 0.75 and 1 dyne/cm^2; 10 minutes
Experimental: Analysis of cell adhesion under flow conditions. Adhesion assays under flow conditions were performed using a parallel plate flow chamber (Glycotech, Rockville, Md.) following the manufacturer's instructions. Cell suspension or cell-free medium were drown into chambers by a syringe pump (Model 44, Harvard Apparatus, Inc., Holliston, Mass.) at a constant rate to generate a desired wall shear stress (τ, dynes/cm2) using the formula τ=6Qμ/a^2b, where Q is flow rate, μ is medium viscosity, b is channel width, and a is channel height. […] Cell adhesion was determined by analysis of digitized video recordings using NIH Image software. Cell-based P-selectin enzyme-linked immunoassay To analyze cell-surface P-selectin expression, the inventors used a previously published method (Cleator et al., 2005). […] After washing and blocking, cells were incubated with 5 μg/mL rat anti-mouse CD62P antibodies (Fitzgerald Industries) or rat isotype-matched control antibody (BD Biosciences) for 1 hour. After washing, a secondary goat anti-rat horseradish peroxidase-conjugated antibody (Jackson ImmunoResearch, West Grove, Pa.) was added for 1 hour followed by washing and then analyzed at […] after addition of substrate.

HMVEC-c cells = test: cAMP accumulation in HMVEC-c cells; type: cell-based, human
Excerpt: Primary cultures of human cardiac microvascular endothelial cells (HMVEC-c) were obtained from Cambrex (Walkersville, Md.), and cultured using EGM™-2 MV growth medium (Cambrex). HMVEC-c from passages 2 to 5 were used. Measurement of cAMP accumulation.

A2B adenosine receptor [9] = molecular target: T4, A2B adenosine receptor; conditions: [11] Feoktistov and Biaggioni (1998); NECA-stimulated HEL cells; cited from earlier work
A2A adenosine receptor [10] = molecular target: A2A adenosine receptor (Rattus norvegicus, UniProt P30543); conditions: cited from earlier work
A2A adenosine receptor (Rattus norvegicus, UniProt P30543), sequence (P30543 whole entry): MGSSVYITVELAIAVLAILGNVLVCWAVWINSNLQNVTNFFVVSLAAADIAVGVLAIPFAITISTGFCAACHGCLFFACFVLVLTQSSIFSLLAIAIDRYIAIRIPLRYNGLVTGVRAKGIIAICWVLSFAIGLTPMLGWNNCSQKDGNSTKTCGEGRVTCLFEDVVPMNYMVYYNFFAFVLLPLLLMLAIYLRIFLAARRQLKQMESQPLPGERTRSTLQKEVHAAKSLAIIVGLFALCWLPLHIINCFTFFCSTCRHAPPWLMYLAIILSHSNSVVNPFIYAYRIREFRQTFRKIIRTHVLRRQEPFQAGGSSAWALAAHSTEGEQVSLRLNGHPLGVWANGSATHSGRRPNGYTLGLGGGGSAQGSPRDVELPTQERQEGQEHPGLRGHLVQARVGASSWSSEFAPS

A2A adenosine receptor [11] = molecular target: A2A adenosine receptor (Mus musculus, UniProt Q60613); conditions: [13] Lopes et al. (2004), striatum, radioligand [3H]SCH58261, cited from earlier work
A2A adenosine receptor (Mus musculus, UniProt Q60613), sequence (Q60613 whole entry): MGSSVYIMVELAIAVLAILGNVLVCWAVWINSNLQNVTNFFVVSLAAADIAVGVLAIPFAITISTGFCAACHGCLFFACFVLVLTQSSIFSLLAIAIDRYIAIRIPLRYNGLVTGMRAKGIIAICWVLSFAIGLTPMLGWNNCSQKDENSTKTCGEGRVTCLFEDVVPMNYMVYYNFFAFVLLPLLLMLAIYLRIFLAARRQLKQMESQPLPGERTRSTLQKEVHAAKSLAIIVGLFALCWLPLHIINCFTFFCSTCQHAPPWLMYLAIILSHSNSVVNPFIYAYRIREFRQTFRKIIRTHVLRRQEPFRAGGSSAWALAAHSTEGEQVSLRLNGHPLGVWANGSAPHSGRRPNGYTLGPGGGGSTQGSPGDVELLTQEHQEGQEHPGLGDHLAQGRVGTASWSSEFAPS

- Kd (A2B receptors): 0.603 µM
- Schild analysis slope (A2B receptors; NECA-induced cAMP accumulation in MCEC-1, simple competitive antagonism at A2B): 1.1
- Affinity or potency at A2B, mouse (m), current study, log (A2B receptors): −6.2 log mol/L
- Affinity or potency (Ki, KD, KB, IC50 or EC50) at A2B, mouse (m), current study (A2B receptors): 0.603 µM
- IC50 ([1]; Mus musculus): 1.6 µM
- Affinity or potency at A1, mouse (m), current study, log (A1 receptors; data from the current study (no reference)): 24,870); −4.6 log mol/L
- Affinity or potency (Ki, KD, KB, IC50 or EC50) at A1, mouse (m), current study (A1 receptors; data from the current study (no reference), 95% CI in parentheses): m 20,000 (16,230- nmol/L
Compound: CC(C)Cn1c(=O)[nH]c(=O)c2[nH]c(N3CCCC3)nc21 [IPDX, 3-isobutyl-8-pyrrolidinoxanthine]
- Affinity or potency at A2A, human (h), log (A2A adenosine receptor [2]): −4.4 log mol/L
- Ki (A2A adenosine receptor [2]; read-out: Affinity or potency at A2A, human (h)): 36 µM
- Affinity or potency at A1, human (h), log (A1 adenosine receptor): −4.6 log mol/L
- Ki (A1 adenosine receptor; read-out: Affinity or potency at A1, human (h)): 24 µM
- Affinity or potency at A2B, human (h), log (A2B adenosine receptor [3]): −6.2 log mol/L
- Ki (A2B adenosine receptor [3]; read-out: Affinity or potency at A2B, human (h)): 0.625 µM

- Affinity or potency at A2B, mouse (m), current study, log (A2B receptors): 65,610); −4.4 log mol/L
- Affinity or potency (Ki, KD, KB, IC50 or EC50) at A2B, mouse (m), current study (A2B receptors): m 39,350 (23,600- nmol/L
- IC50 ([1]; 1 μmol/L NECA): 1.5 µM
- EC50 (A1 receptors; read-out: EC50, antagonism of the action of CPA on forskolin-stimulated cAMP accumulation, eEPCs, 10 nmol/L CPA, 1 μmol/L forskolin): 0.511 µM
- Affinity or potency at A2A, mouse (m), current study, log (A2A adenosine receptor [5]): −6.3 log mol/L
Compound: Cn1cnc2c(NC3CC4CCC3C4)ncnc21 (centres unmarked) [N-0861]
- Affinity or potency at A2A, guinea pig (gp) (A2A adenosine receptor [4]): 575 (±86) nmol/L
- Affinity or potency at A2A, guinea pig (gp), log (A2A adenosine receptor [4]): 6.2 log mol/L
- Affinity or potency at A2B, guinea pig (gp) (A2B adenosine receptor [6]): gp 56,200 nmol/L
- Affinity or potency at A2B, guinea pig (gp), log (A2B adenosine receptor [6]): (±11,400), −4.3 [15] log mol/L

Compound: CCNC(=O)[C@H]1O[C@@H](n2cnc3c(N)ncnc32)[C@H](O)[C@@H]1O [NECA, 5′-N-ethylcarboxamidoadenosine]
- Effect on CE-EPC adhesion to HMVEC-c cells [7]: stimulated CE-EPC adhesion
- Time of half-maximal effect on eEPC adhesion ([1]; 1 μmol/L NECA): 5 min
- EC50 ([1]; Mus musculus, 0.5 h, 30 minutes, read-out: EC50, increase of eEPC adhesion): 0.139 µM
- eEPC adhesion ([1]; maximal, concentration-dependent, 30 minutes, basal 4.5±0.3%): 21.3±1.4%
- Effect on cAMP in eEPCs (eEPCs): did not elevate cAMP
- Effect on eEPC adhesion under laminar flow [8]: significantly increased
- Stimulation of cAMP accumulation (HMVEC-c cells): 5.1±0.1 fold

Compound: Nc1nc2c(cnn2CCc2ccccc2)c2nc(-c3ccco3)nn12 [SCH58261, 5-amino-7-(phenylethyl)-2-(2-furyl)-pyrazolo-[4,3-e]-1,2,4-triazolo-[1,5-c]-pyrimidine]
- Affinity or potency at A2B, mouse (m), current study, log (A2B receptors): 2,486); −5.7 log mol/L
- Affinity or potency (Ki, KD, KB, IC50 or EC50) at A2B, mouse (m), current study (A2B receptors): m 1,868 (1,404- nmol/L
- Affinity or potency at A2B, human (h) (A2B adenosine receptor [9]): > 0.1 µM
- Affinity or potency at A2B, human (h), log (A2B adenosine receptor [9]): > −5 log mol/L
- IC50 ([1]; Mus musculus): 1.7 µM
- Effect on NECA-induced eEPC adhesion at lower concentrations ([1]; concentrations that selectively block A2A receptors, 1 μmol/L NECA): no effect
- Affinity or potency at A2A, rat (r), log (A2A adenosine receptor [10]): r 2.3 (2-2.7); −8.6 [12] log mol/L
- Affinity or potency at A2A, mouse (m), log (A2A adenosine receptor [11]): −9.0 log mol/L
- Ki (A2A adenosine receptor [11]; read-out: Affinity or potency at A2A, mouse (m)): 0.001 µM
